Measurements: patent publication US20070208166A1, “Tao Kinase Modulators And Method Of Use” (Exelixis, Inc., priority 2003, published 2007)

How the values were obtained:
Assay type in all cases: biochemical
TAO = target: T1, TAO (Homo sapiens, UniProt Q9UL54); test: TAO Luciferase-Coupled Chemiluminescent Kinase assay (LCCA); conditions: 2 μM ATP, 10 μM MBP, 12 nM TAO, 2 hours; read-out: TAO inhibition IC50
T1 sequence (Q9UL54 1-1235): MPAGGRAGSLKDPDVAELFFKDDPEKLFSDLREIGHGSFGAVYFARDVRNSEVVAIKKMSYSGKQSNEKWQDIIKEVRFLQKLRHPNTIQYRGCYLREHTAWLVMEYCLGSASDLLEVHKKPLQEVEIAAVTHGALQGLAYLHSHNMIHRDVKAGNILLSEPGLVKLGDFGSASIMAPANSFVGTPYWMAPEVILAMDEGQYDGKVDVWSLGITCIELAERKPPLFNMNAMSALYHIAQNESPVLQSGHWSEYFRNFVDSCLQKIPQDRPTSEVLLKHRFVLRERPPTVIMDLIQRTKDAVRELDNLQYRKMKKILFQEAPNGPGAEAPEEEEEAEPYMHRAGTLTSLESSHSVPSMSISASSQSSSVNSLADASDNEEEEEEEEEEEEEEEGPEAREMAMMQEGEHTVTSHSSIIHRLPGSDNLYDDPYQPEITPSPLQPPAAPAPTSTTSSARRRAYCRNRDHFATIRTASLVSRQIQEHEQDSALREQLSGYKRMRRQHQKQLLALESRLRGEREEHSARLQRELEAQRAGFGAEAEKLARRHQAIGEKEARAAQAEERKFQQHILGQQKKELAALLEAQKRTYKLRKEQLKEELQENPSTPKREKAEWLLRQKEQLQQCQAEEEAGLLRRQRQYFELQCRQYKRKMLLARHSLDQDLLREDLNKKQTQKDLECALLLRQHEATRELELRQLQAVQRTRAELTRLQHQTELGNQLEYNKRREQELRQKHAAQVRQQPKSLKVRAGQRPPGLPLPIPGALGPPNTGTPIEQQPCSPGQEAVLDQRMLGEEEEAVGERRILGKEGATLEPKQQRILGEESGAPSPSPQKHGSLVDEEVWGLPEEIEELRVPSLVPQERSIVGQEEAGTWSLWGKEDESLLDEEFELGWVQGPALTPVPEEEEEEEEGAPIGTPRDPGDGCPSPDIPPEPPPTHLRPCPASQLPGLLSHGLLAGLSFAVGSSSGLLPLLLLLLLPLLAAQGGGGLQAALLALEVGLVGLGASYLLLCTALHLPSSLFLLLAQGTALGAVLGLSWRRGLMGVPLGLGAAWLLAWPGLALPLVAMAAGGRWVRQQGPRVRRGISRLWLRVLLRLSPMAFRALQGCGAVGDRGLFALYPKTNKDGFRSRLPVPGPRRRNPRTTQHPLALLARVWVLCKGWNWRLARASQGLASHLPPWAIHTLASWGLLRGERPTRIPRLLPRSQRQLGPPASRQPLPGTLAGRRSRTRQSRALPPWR
Experimental: (§1) Kinase activity and compound inhibition are investigated using one or more of the three assay formats described below. The ATP concentrations for each assay are selected to be close to the Michaelis-Menten constant (KM) for each individual kinase. Dose-response experiments are performed at 10 different inhibitor concentrations in a 384-well plate format. The data are fitted to four-parameter equation (2) below; where Y is the observed signal, X is the inhibitor concentration, Min is the background signal in the absence of enzyme (0% enzyme activity), Max is the signal in the absence of inhibitor (100% enzyme activity), IC50 is the inhibitor concentration at 50% enzyme inhibition and H represents the empirical Hill's slope to measure the cooperativity. Typically H is close to unity. Y=Min+(Max−Min)/(1+(X/IC50)ˆH) Equation (2) KIAA 1361 Assay: […]
(§2) TAO biochemical activity was assessed using a Luciferase-Coupled Chemiluminescent Kinase assay (LCCA) format. Kinase activity was measured as the percent ATP remaining following the kinase reaction. Remaining ATP was detected by luciferase-luciferin-coupled chemiluminescence. Specifically, the reaction was initiated by mixing test compounds, 2 μM ATP, 10 μM MBP and 12 nM TAO (baculovirus expressed human KIAA 1361 kinase domain 2-322) in a 20 uL assay buffer (20 mM Tris-HCL pH7.5, 10 mM MgCl2, 0.02% Triton X-100, 100 mM DTT, 2 mM MnCl2). The mixture is incubated at ambient temperature for 2 hours after which 20 uL luciferase-luciferin mix is added and the chemiluminescent signal read using a Wallac Victor^2 reader. The luciferase-luciferin mix consists of 50 mM BEPES, pH 7.8, 8.5 ug/mL oxalic acid (pH 7.8), 5 (or 50) mM DTT, 0.4% Triton X-100, 0.25 mg/nL coenzyme A, 63 uM AMP, 28 ug/mL luciferin and 40,000 units of light/mL luciferase.

[1] = target: T2, KIAA 1361 (baculovirus expressed human KIAA 1361 kinase domain 2-322) (Homo sapiens, UniProt Q7L7X3); test: KIAA 1361 Luciferase-Coupled Chemiluminescent Kinase assay (LCCA); conditions: 2 μM ATP, 10 μM MBP, 12 nM KIAA 1361, 2 hours; read-out: KIAA1361 inhibition IC50
T2 construct: human KIAA 1361 kinase domain 2-322; made in house
T2 sequence (Q7L7X3 2-322): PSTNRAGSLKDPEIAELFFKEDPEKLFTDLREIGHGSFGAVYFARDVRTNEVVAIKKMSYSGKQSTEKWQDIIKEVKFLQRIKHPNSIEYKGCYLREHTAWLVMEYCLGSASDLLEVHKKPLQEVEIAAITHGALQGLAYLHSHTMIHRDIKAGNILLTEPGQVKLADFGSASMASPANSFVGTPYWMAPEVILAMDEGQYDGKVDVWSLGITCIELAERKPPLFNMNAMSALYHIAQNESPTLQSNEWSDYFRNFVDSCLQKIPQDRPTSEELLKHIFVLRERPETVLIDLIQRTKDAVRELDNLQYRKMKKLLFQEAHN
Experimental: as §1
as §2, with “KIAA 1361” for “TAO”, “HEPES,” for “BEPES,”, “mg/mL” for “mg/nL”

JIK = target: T3, JIK (Homo sapiens, UniProt Q9H2K8); test: JIK Luciferase-Coupled Chemiluminescent Kinase assay (LCCA); conditions: 2 μM ATP, 10 μM MBP, 6 nM JIK, 2 hours; read-out: JIK inhibition IC50
T3 construct: 6 nM JIK (baculovirus expressed human KIAA 1361 kinase domain2-318); made in house
T3 sequence (Q9H2K8 2-318): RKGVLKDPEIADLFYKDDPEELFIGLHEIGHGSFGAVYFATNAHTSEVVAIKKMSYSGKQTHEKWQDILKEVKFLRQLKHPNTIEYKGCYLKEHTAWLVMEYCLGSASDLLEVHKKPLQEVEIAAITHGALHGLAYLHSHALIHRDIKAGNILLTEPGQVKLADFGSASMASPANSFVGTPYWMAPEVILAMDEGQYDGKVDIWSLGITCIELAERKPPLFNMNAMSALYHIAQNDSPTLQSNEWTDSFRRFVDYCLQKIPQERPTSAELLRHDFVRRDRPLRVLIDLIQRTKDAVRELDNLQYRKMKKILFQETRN
Experimental: as §1
as §2, with “JIK” for “TAO”, “6” for “12”, “domain2-318)” for “domain 2-322)”, “HEPES,” for “BEPES,”, “mg/mL” for “mg/nL”

| SMILES | IC50 (TAO) | IC50 [1] | IC50 (JIK) |
| --- | --- | --- | --- |
| CCc1ccc(-c2ccc(C(=O)N(C)CC(=O)NC3CCCc4ccccc43)cc2)cc1 (stereo not drawn) [Entry 66, 4′-ethyl-N-methyl-N-[2-oxo-2-(1,2,3,4-tetrahydronaphthalen-1-ylamino)ethyl]biphenyl-4-carboxamide] | > 5 µM | > 5 µM | > 5 µM |
| O=C(NC(C(=O)NC1CCCc2ccccc21)c1cccnc1)c1ccc(-n2cncn2)cc1 (stereo not drawn) [Entry 16, N-[2-oxo-1-pyridin-3-yl-2-(1,2,3,4-tetrahydronaphthalen-1-ylamino)ethyl]-4-(1H-1,2,4-triazol-1-yl)benzamide] | 0.05 to 0.5 µM | 0.05 to 0.5 µM | 0.05 to 0.5 µM |
| O=C(CNC(=O)c1ccc(N2CCOCC2)cc1)NC1CCCc2ccccc21 (stereo not drawn) [Entry 58, 4-morpholin-4-yl-N-[2-oxo-2-(1,2,3,4-tetrahydronaphthalen-1-ylamino)ethyl]benzamide] | > 5 µM | > 5 µM | 0.5 to 5 µM |
| O=C(CNC(=O)c1cnc2ccccc2c1)Nc1cccc2c1CCCC2 [Entry 87, N-[2-oxo-2-(5,6,7,8-tetrahydronaphthalen-1-ylamino)ethyl]quinoline-3-carboxamide] | > 5 µM | > 5 µM | > 5 µM |
| Cc1csc(NC(=O)CNC(=O)CC(NC(=O)c2ccccc2)c2ccccc2)n1 (stereo not drawn) [Entry 93, N-[3-({2-[(4-methyl-1,3-thiazol-2-yl)amino]-2-oxoethyl}amino)-3-oxo-1-phenylpropyl]benzamide] | > 5 µM | > 5 µM | > 5 µM |
| CCc1ccc(-c2ccc(C(=O)NCC(=O)NCC3COc4ccccc4O3)cc2)cc1 (stereo not drawn) [Entry 65, N-{2-[(2,3-dihydro-1,4-benzodioxin-2-ylmethyl)amino]-2-oxoethyl}-4′-ethylbiphenyl-4-carboxamide] | > 5 µM | > 5 µM | > 5 µM |

The remaining lines, values ahead:

| IC50 (TAO) | IC50 [1] | IC50 (JIK) | SMILES |
| --- | --- | --- | --- |
| 0.05 to 0.5 µM | 0.05 to 0.5 µM | 0.05 to 0.5 µM | CCOCCCn1c(=S)[nH]c2cc(C(=O)NCC3COc4ccccc4O3)ccc2c1=O (stereo not drawn) [Entry 39, N-(2,3-dihydro-1,4-benzodioxin-2-ylmethyl)-3-[3-(ethyloxy)propyl]-4-oxo-2-thioxo-1,2,3,4-tetrahydroquinazoline-7-carboxamide] |
| > 5 µM | 0.5 to 5 µM | 0.5 to 5 µM | CC(C)CC(NC(=O)c1ccc(-c2ccccc2)cc1)C(=O)NC1CCCc2ccccc21 (stereo not drawn) [Entry 32, N-{3-methyl-1-[(1,2,3,4-tetrahydronaphthalen-1-ylamino)carbonyl]butyl}biphenyl-4-carboxamide] |
| 0.5 to 5 µM | 0.5 to 5 µM | 0.05 to 0.5 µM | O=C(CNC(=O)c1ccc(OC(F)(F)F)cc1)NC1CCCc2ccccc21 (stereo not drawn) [Entry 45, N-[2-oxo-2-(1,2,3,4-tetrahydronaphthalen-1-ylamino)ethyl]-4-[(trifluoromethyl)oxy]benzamide] |
| 0.05 to 0.5 µM | < 0.05 µM | < 0.05 µM | CCCCCCOc1ccc(C(=O)NCC(=O)NC2CCCc3ccccc32)cc1 (stereo not drawn) [Entry 6, 4-(hexyloxy)-N-[2-oxo-2-(1,2,3,4-tetrahydronaphthalen-1-ylamino)ethyl]benzamide] |
| > 5 µM | > 5 µM | > 5 µM | CCc1ccc(-c2ccc(C(=O)NCC(=O)Nc3nc4ccc(OC)cc4s3)cc2)cc1 [Entry 64, 4′ethyl-N-(2-{[6-(methyloxy)-1,3-benzothiazol-2-yl]amino}-2-oxoethyl)biphenyl-4-carboxamide] |
| > 5 µM | > 5 µM | > 5 µM | O=C(CNC(=O)c1cnc2ccccc2c1)NC1CCCc2ccccc21 (stereo not drawn) [Entry 46, N-[2-oxo-2-(1,2,3,4-tetrahydronaphthalen-1-ylamino)ethyl]quinoline-3-carboxamide] |
| 0.5 to 5 µM | > 5 µM | 0.05 to 0.5 µM | CCCCCOc1ccc(C(=O)NC(CC(C)C)C(=O)NC2CCCc3ccccc32)cc1 (stereo not drawn) [Entry 35, N˜2˜-{[4-(pentyloxy)phenyl]carbonyl}-N(1,2,3,4-tetrahydronaphthalen-1-yl)leucinamide] |
